Experimental data: US7524847B2, “Fused 1,3-dihydro-imidazole ring compounds” (Eisai R&D Management Co., Ltd., priority 2002, dated 2009)
Counter-ions that a name gives are not always drawn.

Biological target: T1, DPP-IV obtained from pig kidney (Sus scrofa, UniProt P22411)
T1 construct: DPP-IV obtained from pig kidney; from tissue; host or cells: pig kidney
Test: Measurement of DPPIV-inhibiting activity (in vitro experiment)
Type: biochemical
Conditions: DPP-IV from pig kidney 10 mU/mL, substrate Gly-Pro-p-nitroanilide 0.33 mM, 20 min preincubation, 20 min reaction, absorbance 405 nm
Experimental: DPP-IV obtained from pig kidney was dissolved in a reaction buffer (50 mM Tris-HCl pH7.4, 0.1% BSA) at 10 mU/mL, and 110 μL of this was used. 15 μL of the drug obtained from the aforementioned Examples was added, and this was incubated at room temperature for 20 minutes, and then 25 μL of a 2 mM solution of Gly-Pro-p-nitroanilide (final concentration 0.33 mM) was added to start the enzymatic reaction. The reaction time was 20 minutes, and 1 N phosphoric acid solution (25 μL) was added to stop the reaction.

T1 sequence (P22411 whole entry): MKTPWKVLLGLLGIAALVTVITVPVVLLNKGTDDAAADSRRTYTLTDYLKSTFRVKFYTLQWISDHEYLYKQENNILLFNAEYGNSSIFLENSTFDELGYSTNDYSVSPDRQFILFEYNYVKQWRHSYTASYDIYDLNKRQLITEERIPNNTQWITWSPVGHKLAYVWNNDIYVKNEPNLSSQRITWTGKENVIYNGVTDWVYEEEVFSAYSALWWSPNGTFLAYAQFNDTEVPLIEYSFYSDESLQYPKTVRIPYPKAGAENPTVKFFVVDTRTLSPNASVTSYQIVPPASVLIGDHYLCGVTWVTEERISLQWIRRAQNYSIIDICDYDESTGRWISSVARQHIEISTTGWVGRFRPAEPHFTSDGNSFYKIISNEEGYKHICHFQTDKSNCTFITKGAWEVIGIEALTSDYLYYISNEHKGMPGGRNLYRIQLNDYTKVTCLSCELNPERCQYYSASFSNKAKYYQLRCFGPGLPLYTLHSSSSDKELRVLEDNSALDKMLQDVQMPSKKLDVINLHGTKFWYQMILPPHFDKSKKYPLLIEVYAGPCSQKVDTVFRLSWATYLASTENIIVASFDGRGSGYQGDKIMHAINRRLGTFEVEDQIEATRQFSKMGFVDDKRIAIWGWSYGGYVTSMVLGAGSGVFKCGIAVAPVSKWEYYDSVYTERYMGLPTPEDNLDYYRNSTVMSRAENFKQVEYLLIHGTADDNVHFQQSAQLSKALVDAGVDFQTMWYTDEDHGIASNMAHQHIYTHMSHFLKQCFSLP

SMILES | IC50
CC#CCn1c(=O)n(C)c2ccnc(N3CCNCC3)c21 [Example 82, 3-(2-Butynyl)-1-methyl-4-piperazin-1-yl-1,3-dihydroimidazo[4.5-c]pyridin-2-one] | 5230 nM
CC#CCn1c(=O)n(Cc2ccccc2C#N)c2ncnc(N3CCNCC3)c21 [Example 79, 2-[7-(2-Butynyl)-8-oxo-6-piperazin-1-yl-7,8-dihydropurin-9-ylmethyl]benzonitrile trifluoroacetic acid salt] | 4.2 nM
CC#CCn1c(=O)n(Cc2ccc(C#N)cc2)c2ncnc(N3CCNCC3)c21 [Example 73, 4-[7-(2-Butynyl)-8-oxo-6-(piperazin-1-yl)-7,8-dihydropurin-9-ylmethyl]benzonitrile trifluoroacetic acid salt] | 48.4 nM
CC#CCn1c(=O)n(C)c2ncnc(N3CCNCC3)c21 [Example 76, 7-(2-Butynyl)-9-methyl-6-(piperazin-1-yl)-7,9-dihydropurin-8-one trifluoroacetic acid] | 1060 nM
CC#CCn1c(=O)n(C)c2nc(N(CC)CC)nc(N3CCNCC3)c21 [Example 3, 7-(2-Butynyl)-2-diethylamino-9-methyl-6-(piperazin-1-yl)-7,9-dihydropurin-8-one trifluoroacetic acid salt] | 325 nM
CC#CCn1c(=O)n(C)c2nc(Oc3ccccc3C(N)=O)nc(N3CCNCC3)c21 [Example 14, 2-[7-(2-Butynyl)-9-methyl-8-oxo-6-(piperazin-1-yl)-8,9-dihydro-7H-purin-2-yloxy]benzamide trifluoroacetic acid salt] | 124 nM
CC#CCn1c(=O)n(Cc2ccccc2)c2nc(Cl)nc(N3CCNCC3)c21 [Example 36, 9-Benzyl-7-(2-butynyl)-2-chloro-6-(piperazin-1-yl)-7,9-dihydropurin-8-one trifluoroacetic acid salt] | 80.7 nM
CC(C)=CCn1c(=O)n(C)c2nc(Cl)nc(N3CCNCC3)c21 [Example 19, 2-Chloro-9-methyl-7-(3-methyl-2-butenyl)-6-(piperazin-1-yl)-7,9-dihydropurin-8-one trifluoroacetic acid salt] | 5410 nM
C#CCn1c(=O)n(CC#CC)c2c(N3CCNCC3)ncnc21 [Example 70, 7-(2-Butynyl)-6-(piperazin-1-yl)-9-(2-propynyl)-7,9-dihydropurin-8-one trifluoroacetic acid salt] | 94.8 nM
CC#CCn1c(=O)[nH]c2ncnc(N3CCNCC3)c21 [Example 75, 7-(2-Butynyl)-6-(piperazin-1-yl)-7,9-dihydropurin-8-one trifluoroacetic acid salt] | 921 nM
CC#CCn1c(=O)n(-c2ccc(=O)[nH]c2)c2ncnc(N3CCNCC3)c21 [Example 67, 7-(2-Butynyl)-9-(6-oxo-16-dihydro-pyridin-3-yl)-6-(piperazin-1-yl)-7,9-dihydropurin-8-one trifluoroacetic acid salt] | 49.8 nM
CC#CCn1c(=O)n(-c2ccccc2)c2ncnc(N3CCNCC3)c21 [Example 62, 7-(2-Butynyl)-9-phenyl-6-(piperazin-1-yl)-7,9-dihydropurin-8-one trifluoroacetic acid salt] | 139 nM
CC#CCn1c(=O)n(CC(=O)O)c2nc(Cl)nc(N3CCNCC3)c21 [Example 31, [7-(2-Butynyl)-2-chloro-8-oxo-6-(piperazin-1-yl)-7,8-dihydropurin-9-yl]acetic acid trifluoroacetic acid salt] | 259 nM
CC#CCn1c(=O)n(C)c2nc(NC)nc(N3CCNCC3)c21 [Example 5, 7-(2-Butynyl)-9-methyl-2-methylamino-6-(piperazin-1-yl)-7,9-dihydropurin-8-one trifluoroacetic acid salt] | 172 nM
CC#CCn1c(=O)n(CCc2ccc(Br)cc2)c2nc(Cl)nc(N3CCNCC3)c21 [Example 35, 9-[2-(4-Bromophenyl)-ethyl]-7-(2-butynyl)-2-chloro-6-(piperazin-1-yl)-7,9-dihydropurin-8-one trifluoroacetic acid salt] | 26.6 nM
CC#CCn1c(=O)n(CC#N)c2nc(Cl)nc(N3CCNCC3)c21 [Example 32, [7-(2-Butynyl)-2-chloro-8-oxo-6-(piperazin-1-yl)-7,8-dihydropurin-9-yl]acetonitrile trifluoroacetic acid salt] | 212 nM
CCC#CCn1c(=O)n(C)c2nc(Cl)nc(N3CCNCC3)c21 [Example 18, 2-Chloro-9-methyl-7-(2-pentynyl)-6-(piperazin-1-yl)-7,9-dihydropurin-8-one trifluoroacetic acid salt] | 972 nM
Cn1c(=O)n(Cc2ccccc2)c2c(N3CCNCC3)ncnc21 [Example 78, 7-Benzyl-9-methyl-6-(piperazin-1-yl)-7,9-dihydropurin-8-one trifluoroacetic acid salt] | 3800 nM
CC#CCn1c(=O)n(Cc2ccccc2C#N)c2nc(Cl)nc(N3CCNCC3)c21 [Example 29, 2-[7-(2-Butynyl)-2-chloro-8-oxo-6-(piperazin-1-yl)-7,8-dihydropurin-9-ylmethyl]benzonitrile trifluoroacetic acid salt] | 2.92 nM
CC#CCn1c(=O)n(C)c2nc(N(C)C)nc(N3CCNCC3)c21 [Example 4, 7-(2-Butynyl)-2-dimethylamino-9-methyl-6-(piperazin-1-yl)-7,9-dihydropurin-8-one trifluoroacetic acid salt] | 334 nM
CC#CCn1c(=O)n(-c2ccc(=O)n(C)c2)c2ncnc(N3CCNCC3)c21 [Example 68, 7-(2-Butynyl)-9-(1-methyl-6-oxo-1,6-dihydro-pyridin-3-yl)-6-(piperazin-1-yl)-7,9-dihydropurin-8-one trifluoroacetic acid salt] | 187 nM
CC#CCn1c(=O)n(CC(N)=O)c2nc(Cl)nc(N3CCNCC3)c21 [Example 33, 2-[7-(2-Butynyl)-2-chloro-8-oxo-6-(piperazin-1-yl)-7,8-dihydropurin-9-yl]acetamide trifluoroacetic acid salt] | 163 nM
CC#CCn1c(=S)n(C)c2ncnc(N3CCNCC3)c21 [Example 84, 7-(2-Butynyl)-9-methyl-6-(piperazin-1-yl)-7,9-dihydropurin-8-thione trifluoroacetic acid salt] | 13600 nM

The next lines start with the values.

IC50 | SMILES
47.4 nM | CC#CCn1c(=O)n(C)c2nc(Oc3ccccc3)nc(N3CCNCC3)c21 [Example 12, 7-(2-Butynyl)-9-methyl-2-phenoxy-6-(piperazin-1-yl)-7,9-dihydropurin-8-one trifluoroacetic acid salt]
450 nM | CC#CCn1c(=O)n(C)c2nc(N)nc(N3CCNCC3)c21 [Example 6, 2-Amino-7-(2-butynyl)-9-methyl-6-(piperazin-1-yl)-7,9-dihydropurin-8-one trifluoroacetic acid salt]
86.4 nM | CC#CCn1c(=O)n(C)c2nc(Cl)nc(N3CCNCC3)c21 [Example 2, 7-(2-Butynyl)-2-chloro-9-methyl-6-(piperazin-1-yl)-7,9-dihydropurin-8-one trifluoroacetic acid salt]
132 nM | CC#CCn1c(=O)n(-c2ccoc2)c2nc(Cl)nc(N3CCNCC3)c21 [Example 44, 7-(2-Butynyl)-2-chloro-9-(furan-3-yl)-6-(piperazin-1-yl)-7,9-dihydropurin-8-one trifluoroacetic acid salt]
59.3 nM | CC#CCn1c(=O)n(-c2ccc(OC)nc2)c2ncnc(N3CCNCC3)c21 [Example 66, 7-(2-Butynyl)-9-(6-methoxy-pyridin-3-yl)-6-(piperazin-1-yl)-7,9-dihydropurin-8-one trifluoroacetic acid salt]
146 nM | CC#CCn1c(=O)n(-c2ccoc2)c2ncnc(N3CCNCC3)c21 [Example 63, 7-(2-Butynyl)-9-(furan-3-yl)-6-(piperazin-1-yl)-7,9-dihydropurin-8-one trifluoroacetic acid salt]
77.5 nM | CC#CCn1c(=O)n(-c2ccsc2)c2nc(OC)nc(N3CCNCC3)c21 [Example 57, 7-(2-Butynyl)-9-(thiophen-3-yl)-2-methoxy-6-(piperazin-1-yl)-7,9-dihydropurin-8-one trifluoroacetic acid salt]
3.65 nM | CC#CCn1c(=O)n(Cc2ccccc2C#N)c2nc(OC)nc(N3CCNCC3)c21 [Example 50, 2-[7-(2-Butynyl)-2-methoxy-8-oxo-6-(piperazin-1-yl)-7,8-dihydropurin-9-ylmethyl]benzonitrile trifluoroacetic acid salt]
67.8 nM | CC#CCn1c(=O)n(-c2ccc(OC)cc2)c2nc(Cl)nc(N3CCNCC3)c21 [Example 43, 7-(2-Butynyl)-2-chloro-9-(4-methoxyphenyl)-6-(piperazin-1-yl)-7,9-dihydropurin-8-one trifluoroacetic acid salt]
119 nM | C=CCn1c(=O)n(CC#CC)c2c(N3CCNCC3)nc(OCC)nc21 [Example 59, 9-Allyl-7-(2-butynyl)-2-ethoxy-6-(piperazin-1-yl)-7,9-dihydropurin-8-one trifluoroacetic acid salt]
364 nM | CC#CCOc1nc(N2CCNCC2)c2c(n1)n(C)c(=O)n2CC#CC [Example 16, 7-(2-Butynyl)-2-(2-butynyloxy)-9-methyl-6-(piperazin-1-yl)-7,9-dihydropurin-8-one trifluoroacetic acid salt]
91.7 nM | CC#CCn1c(=O)n(-c2ccccc2)c2nc(Cl)nc(N3CCNCC3)c21 [Example 41, 7-(2-Butynyl)-2-chloro-9-phenyl-6-(piperazin-1-yl)-7,9-dihydropurin-8-one trifluoroacetic acid salt]
130 nM | CC#CCn1c(=O)n(-c2ccsc2)c2nc(Cl)nc(N3CCNCC3)c21 [Example 45, 7-(2-Butynyl)-2-chloro-6-(piperazin-1-yl)-9-(thiophen-3-yl)-7,9-dihydropurin-8-one trifluoroacetic acid salt]
